Measured values from patent EP2060571A1, “Insecticide iminoheterocycles” (Bayer CropScience AG, priority 2007, dated 2009).
Like-named read-outs stand apart in the source and are kept apart here. Each block holds one molecule with its values, some of them ahead of it.

Columns and labels:
[1] = logP determination (acidic, HCOOH); format: physicochemical
[2] = system: Myzus persicae; experiment: Myzus test (spray treatment); format: in vivo; settings: Aufwandmenge 500 g/ha, Chinakohlblattscheiben (Brassica pekinensis) sprayed, 100 % = all aphids killed, read-out: Wirkung
Description: Myzus-Test (Spritzbehandlung)
Zur Herstellung einer zweckmäßigen Wirkstoffzubereitung vermischt man 1 Gewichtsteil Wirkstoff mit den angegebenen Mengen Lösungsmittel und Emulgator und verdünnt das Konzentrat mit emulgatorhaltigem Wasser auf die gewünschte Konzentration.
Chinakohlblattscheiben (Brassica pekinensis), die von allen Stadien der Grünen Pfirsichblattlaus (Myzus persicae) befallen sind, werden mit einer Wirkstoffzubereitung der gewünschten Konzentration gespritzt.
Nach der gewünschten Zeit wird die Wirkung in % bestimmt. Dabei bedeutet 100 %, dass alle Blattläuse abgetötet wurden; 0 % bedeutet, dass keine Blattläuse abgetötet wurden.

[3] = system: Boophilus microplus; experiment: Boophilus microplus test (BOOPMI injection); format: in vivo; settings: Aufwandmenge 20 µg/Tier; injected into the abdomen; 100 % = no tick laid fertile eggs
Description: Boophilus microplus -Test (BOOPMI Injektion)
Lösungsmittel: Dimethylsulfoxid
Zur Herstellung einer zweckmäßigen Wirkstoffzubereitung vermischt man 1 Gewichtsteil Wirkstoff mit der angegebenen Menge Lösungsmittel und verdünnt das Konzentrat mit Lösungsmittel auf die gewünschte Konzentration.
Die Wirkstofflösung wird in das Abdomen (Boophilus microplus) injiziert, die Tiere werden in Schalen überführt und in einem klimatisierten Raum aufbewahrt.
Nach der gewünschten Zeit wird die Wirkung in % bestimmt. Dabei bedeutet 100%, dass keine Zecke fertile Eier gelegt hat.

[4] = hcooh, read-out: Phys. Daten = logP (HCOOH)
[5] = acidic (HCOOH), read-out: Phys. Daten = logP (HCOOH)

SMILES: CC(C)c1cs/c(=N\C2CCc3ccsc32)n1CCO (stereo not shown) [I-1, 2-[(2Z)-2-(5,6-dihydro-4H-cyclopenta[b]thiophen-6-ylimino)-4-(1-methylethyl)-1,3-thiazol-3(2H)-yl]ethanol]
logP [1, 5]: 1.19
logP ([1]; sauer, read-out: logP (sauer)): 1.19
mortality at 500 g/ha [2]: ≥ 80%
Wirkung [3]: ≥ 80%

SMILES: CC(C)c1cs/c(=N\C2CCCc3occc32)n1CCO (stereo not shown) [I-2]
logP [1, 5]: 1.23
logP ([1]; sauer, read-out: logP (sauer)): 1.23
mortality at 500 g/ha [2]: ≥ 80%

More lines, main results first:

logP [1, 4]: 1.4
logP ([1]; sauer, read-out: logP (sauer)): 1.4
SMILES: OCCNC(=S)NC1CCCc2occc21 (stereo not shown) [II-2, 1-(2-hydroxyethyl)-3-(4,5,6,7-tetrahydro-1-benzofuran-4-yl)thiourea]
mortality at 500 g/ha [2]: ≥ 80%

logP [1, 4]: 1.47
logP ([1]; sauer, read-out: logP (sauer)): 1.47
SMILES: OCCNC(=S)NC1CCc2ccsc21 (stereo not shown) [II-1, (5,6-dihydro-4H-cyclopenta[b]thiophen-6-yl)-3-(2-hydroxyethyl)thiourea]
mortality at 500 g/ha [2]: ≥ 80%

logP [1, 4]: 1.7
SMILES: OCCNC(=S)NC1CCCc2sccc21 (stereo not shown) [II-3]
mortality at 500 g/ha [2]: ≥ 80%

logP [1, 4]: 1.3
SMILES: C[C@H](NC(=S)NCCO)c1cccs1 [II-74]
